Measured values as given in ChEMBL document CHEMBL5233288, “Ginkgo Biflavones Cause p53 Wild-Type Dependent Cell Death in a Transcription-Independent Manner of p53” (J Nat Prod, 2023).
Calls of active or inactive are those of the source. No cut-off for these calls is given here.

How the values were obtained:
RKO = assay: Cytotoxicity against human RKO cells expressing wild type p53 assessed as induction of cell death at 20 uM incubated for 72 hrs by resazurin based analysis; format: functional
HCT-116 [1] = assay: Potentiation of 5-FU-induced cytotoxicity in human HCT-116 cells assessed as reduction in cell viability at 10 uM incubated for 24 hrs in presence of 10 uM 5-FU by resazurin based analysis; format: functional
HCT-116 [2] = assay: Induction of cell cycle arrest in human HCT-116 cells expressing wild type p53 assessed as accumulation of cells at G2 phase at 10 uM incubated for 24 hrs by PI staining based flow cytometry (reference value: 30.7 to 31.5%); format: functional
HCT-116 [3] = assay: Induction of cell cycle arrest in human HCT-116 cells expressing wild type p53 assessed as accumulation of cells at S phase at 20 uM incubated for 24 hrs by PI staining based flow cytometry (reference value: 0.52 to 3.83%); format: functional
HCT-116 [4] = assay: Upregulation of p53 protein expression in human HCT-116 cells expressing wild type p53 at 20 uM by western blot analysis; format: functional, cell-based; conditions: time 0.5-16 hrs, TDE = time-dependent effect
HCT-116 [5] = assay: Induction of apoptosis in human HCT-116 cells expressing wild type p53 assessed as early apoptotic cells at 20 uM incubated for 48 hrs by Annexin V-FITC/PI staining based flow cytometry (reference value: 12%); format: functional
HCT-116 [6] = assay: Upregulation of BAX protein expression in human HCT-116 cells at 20 uM incubated for 24 hrs by western blot analysis; format: functional, cell-based
HCT-116 [7] = assay: Induction of apoptosis in human HCT-116 cells expressing wild type p53 assessed as necrotic cells at 10 uM incubated for 48 hrs by Annexin V-FITC/PI staining based flow cytometry (reference value: 0.44%); format: functional
HCT-116 [8] = assay: Induction of cell cycle arrest in human HCT-116 cells expressing wild type p53 assessed as accumulation of cells at S phase at 5 uM incubated for 24 hrs by PI staining based flow cytometry (reference value: 0.52 to 3.83%); format: functional
HCT-116 [9] = assay: Downregulation of MDM2 protein expression in human HCT-116 cells at 10 uM incubated for 24 hrs in presence of 10 uM 5-FU by western blot analysis; format: functional, cell-based
HCT-116 [10] = assay: Upregulation of p53 protein expression in human HCT-116 cells expressing wild type p53 incubated for 24 hrs by western blot analysis; format: functional, cell-based; conditions: dose 2.5-20 µM
[11] = Toxicity against BALB/c nude mouse xenografted with human HCT-116 cells assessed as body weight loss at 10 mg/kg, ip qd for 12 days and measured every 2 days; format: organism-based; conditions: in vivo, 288 h, time 12 day
HCT-116 [12] = assay: Potentiation of 5-FU-induced antitumor activity against human HCT-116 cells xenografted in BALB/c nude mouse assessed as reduction in tumor volume at 10 mg/kg, ip qd for 12 days and administered with 5-FU at 30 mg/kg, ip once every 3 days for 12 days and measured every 2 days; format: functional, organism-based; conditions: time 12.0 day
HCT-116 [13] = assay: Potentiation of 5-FU-induced antitumor activity against human HCT-116 cells xenografted in BALB/c nude mouse assessed as reduction in tumor weight at 10 mg/kg, ip qd for 12 days and administered with 5-FU at 30 mg/kg, ip once every 3 days for 12 days; format: functional, organism-based; conditions: time 12.0 day
HCT-116 [14] = assay: Antitumor activity against human HCT-116 cells xenografted in BALB/c nude mouse assessed as reduction in tumor volume at 10 mg/kg, ip qd for 12 days and measured every 2 days; format: functional, organism-based; conditions: time 12.0 day
[15] = Toxicity against BALB/c nude mouse xenografted with human HCT-116 cells assessed as body weight loss at 10 mg/kg, ip qd for 12 days and administered with 5-FU at 30 mg/kg, ip once every 3 days for 12 days and measured every 2 days; format: organism-based; conditions: in vivo, 288 h, time 12 day
HCT-116 [16] = assay: Antitumor activity against human HCT-116 cells xenografted in BALB/c nude mouse assessed as reduction in tumor weight at 10 mg/kg, ip qd for 12 days; format: functional, organism-based; conditions: time 12.0 day

In the case of COc1ccc(-c2cc(=O)c3c(O)cc(O)cc3o2)cc1-c1c(O)cc(O)c2c(=O)cc(-c3ccc(O)cc3)oc12 [BILOBETIN], the Activity (RKO) is reported as “Active”, the Activity (HCT-116 [1]) is reported as “Active” and the Activity (HCT-116 [2]) is reported as 33.4%. For the same molecule, the Activity (HCT-116 [3]) was 7.24%, the Activity (HCT-116 [4]) was “Tde” and the Activity (HCT-116 [5]) was 39.9%. For the same molecule, the Activity (HCT-116 [6]) was “inactive”, the Activity (HCT-116 [7]) was 0.46% and the Activity (HCT-116 [8]) was 1.81%. The inhibition (HCT-116 [9]) was “Active” and the Activity (HCT-116 [10]) was “Dose-Dependent Effect”.

In the case of COc1cc(O)c2c(=O)cc(-c3ccc(OC)c(-c4c(O)cc(O)c5c(=O)cc(-c6ccc(O)cc6)oc45)c3)oc2c1 [GINKGETIN], the Activity (RKO) is reported as “Active”, the Activity [11] is reported as “Non-Toxic” and the Activity (HCT-116 [1]) is reported as “Active”. For the same molecule, the Activity (HCT-116 [12]) was “Active”, the Activity (HCT-116 [2]) was 43.1% and the Activity (HCT-116 [3]) was 1.47%. For the same molecule, the Activity (HCT-116 [13]) was “Active”, the Activity (HCT-116 [4]) was “Tde” and the Activity (HCT-116 [5]) was 33.6%. The Activity (HCT-116 [14]) was “Active”, the Activity (HCT-116 [6]) was “inactive” and the Activity (HCT-116 [7]) was 0.99%. For the same molecule, the Activity [15] was “Non-Toxic”, the Activity (HCT-116 [8]) was 1.2% and the inhibition (HCT-116 [9]) was “Active”. The Activity (HCT-116 [16]) was “Active” and the Activity (HCT-116 [10]) was “Dose-Dependent Effect”.

In the case of COc1ccc(-c2cc(=O)c3c(O)cc(O)c(-c4cc(-c5cc(=O)c6c(O)cc(O)cc6o5)ccc4OC)c3o2)cc1 [ISOGINKGETIN], the Activity (RKO) is reported as “Active”, the Activity (HCT-116 [1]) is reported as “Active” and the Activity (HCT-116 [2]) is reported as 44.5%. For the same molecule, the Activity (HCT-116 [3]) was 3.82%, the Activity (HCT-116 [4]) was “Tde” and the Activity (HCT-116 [5]) was 40.6%. The Activity (HCT-116 [6]) was “inactive”, the Activity (HCT-116 [7]) was 0.92% and the Activity (HCT-116 [8]) was 3.37%. For the same molecule, the inhibition (HCT-116 [9]) was “Active” and the Activity (HCT-116 [10]) was “Dose-Dependent Effect”.
